Measurements reported in patent publication US11066369B2, “N-(pyridin-2-yl)pyridine-sulfonamide derivatives and their use in the treatment of disease” (Novartis AG, priority 2016, dated 2021).
pEC50: −log10 of the molar value. Structures can show the parent of a compound that is named as a salt. Where two headings read alike, the source gives them in different places.

Molecular target: T1, horseradish peroxidase (HRP) tagged delF508-CFTR (Homo sapiens, UniProt P13569, DEL508-508)
T1 construct: expressed in transfected cells
T1 sequence (P13569 with tags, fused parts or gaps DEL508-508): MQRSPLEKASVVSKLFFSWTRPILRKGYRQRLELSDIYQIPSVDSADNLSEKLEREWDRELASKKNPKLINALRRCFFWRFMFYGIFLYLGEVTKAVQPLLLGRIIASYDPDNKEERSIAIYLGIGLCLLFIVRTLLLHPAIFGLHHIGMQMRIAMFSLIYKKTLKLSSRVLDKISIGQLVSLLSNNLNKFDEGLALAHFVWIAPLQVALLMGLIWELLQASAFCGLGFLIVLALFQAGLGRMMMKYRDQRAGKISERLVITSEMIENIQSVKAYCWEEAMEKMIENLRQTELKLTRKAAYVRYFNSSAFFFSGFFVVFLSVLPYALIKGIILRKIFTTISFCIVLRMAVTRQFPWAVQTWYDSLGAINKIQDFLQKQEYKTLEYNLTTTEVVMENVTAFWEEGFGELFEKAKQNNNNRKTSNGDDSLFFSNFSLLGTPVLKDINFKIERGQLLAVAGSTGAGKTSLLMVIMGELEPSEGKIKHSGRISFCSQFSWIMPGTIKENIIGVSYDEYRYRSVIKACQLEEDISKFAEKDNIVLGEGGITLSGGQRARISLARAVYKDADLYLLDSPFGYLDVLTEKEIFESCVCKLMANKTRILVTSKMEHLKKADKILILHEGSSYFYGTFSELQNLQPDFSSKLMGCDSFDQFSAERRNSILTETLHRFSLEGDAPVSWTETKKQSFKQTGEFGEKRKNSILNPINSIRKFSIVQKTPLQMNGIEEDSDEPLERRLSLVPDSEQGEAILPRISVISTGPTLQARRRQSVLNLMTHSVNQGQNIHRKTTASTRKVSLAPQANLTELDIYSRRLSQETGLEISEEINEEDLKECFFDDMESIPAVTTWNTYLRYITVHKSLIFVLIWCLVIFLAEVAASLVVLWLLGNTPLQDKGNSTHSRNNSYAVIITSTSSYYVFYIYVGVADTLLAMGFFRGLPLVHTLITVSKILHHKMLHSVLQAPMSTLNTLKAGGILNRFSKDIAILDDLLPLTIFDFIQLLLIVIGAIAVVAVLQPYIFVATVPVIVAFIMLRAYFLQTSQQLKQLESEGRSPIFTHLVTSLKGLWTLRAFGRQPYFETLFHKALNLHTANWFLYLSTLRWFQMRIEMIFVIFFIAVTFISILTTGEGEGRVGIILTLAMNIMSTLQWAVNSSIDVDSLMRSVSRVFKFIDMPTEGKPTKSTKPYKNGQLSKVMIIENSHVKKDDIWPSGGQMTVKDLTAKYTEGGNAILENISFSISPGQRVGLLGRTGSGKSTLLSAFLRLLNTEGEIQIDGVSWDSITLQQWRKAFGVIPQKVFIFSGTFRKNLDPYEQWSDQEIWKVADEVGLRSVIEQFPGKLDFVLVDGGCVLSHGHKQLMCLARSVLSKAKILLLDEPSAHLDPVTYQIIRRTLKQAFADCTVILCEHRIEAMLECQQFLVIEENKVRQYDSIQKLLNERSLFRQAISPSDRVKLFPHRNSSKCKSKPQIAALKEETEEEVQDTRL
Test: Measurement of delF508-CFTR-HRP surface expression in CFBE41o- cells;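 as to DelF508-CFTR-HRP Amax %: percent efficacy relative to reference corrector lumacaftor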
Assay type: cell-based
Details: CFBE41o- cells; for pEC50: read-out: DelF508-CFTR-HRP EC50; for Emax: read-out: DelF508-CFTR-HRP Amax %
Description: Measurement of delF508-CFTR-HRP Surface Expression in CFBE41o-Cells
This assay quantifies the cell surface expressions of the mutant CFTR channel using an extracellular HRP tag.
A cellular assay was developed to measure surface expression of horseradish peroxidase (HRP) tagged delF508-CFTR in the human bronchial epithelial immortalized CFBE41o-cell line (Phuan, P. W., et al, (2014) Molecular Pharmacology 86:42-51). Specifically, the HRP sequence was inserted into the fourth extracellular loop of delF508-CFTR and stably expressed in CFBE41o-cells. Cells were seeded in 384 well plate at a density of 5000 cells/well and incubated at 37° C. for 12 to 24 hours in medium (Gibco MEM #11095, 10% FBS, 10 mM HEPES, […], 200 μg/mL G418, 3 μg/mL Puromycin). The delF508-CFTR-HRP expression was induced with 500 ng/mL doxycycline (Sigma D-9891, dissolved in H2O and sterile filtered) in medium and the cells were incubated at 37° C. for 48h. Old medium was removed and fresh medium was added containing 500 ng/mL doxycycline and unknown test compound at required test concentration in DMSO, not exceeding 0.5% final DMSO concentration. The highest concentration tested was 10 μM with a 10-point concentration response curve using a 3-fold dilution. After addition of compounds, the cells were incubated for 24h at 37° C. On the final day, cells were washed four times in PBS containing 1 mM MgCl2 and 0.1 mM CaCl2. HRP-Substrate (SuperSignal ELISA Pico, Fisher #37069) 20 μl/well was added and the luminescence signal was determined (Viewlux, Perkin Elmer). Light was emitted upon addition of exogenous HRP-Substrate only when delF508-CFTR-HRP reached the cell surface and the HRP tag was accessible to the HRP-Substrate (note: HRP-Substrate cannot cross the lipid bilayer to reach delF508-CFTR-HRP misfolded within the cell).
The median activity for the lowest concentration of the compounds on each assay plate was calculated and this value was used to normalize the signal for each well on the respective plate. Three replicates at each concentrations for every compound were run to determine one EC50. The median value was determined and used to calculate compound activities as described below. Effective half maximal values (EC50) were calculated for each compound by performing logistic regression on measured dose-response data points using the equation:
[formula] where “Y” is the observed activity, “Bottom” is the lowest observed value, “Top” is the highest observed value, and the “Hill coefficient” gives the largest absolute value of the slope. The curve fitting is carried out by a curve fitting program implemented at GNF using Matlab (Mathworks).
The dose response curves also were used to calculate Fold Change (FC) using the equation: […]
Compound efficacy relative to the reference compound 3-(6-(1-(2,2-difluorobenzo[d][1,3]dioxol-5-yl)cyclopropane-1-carboxamido)-3-methylpyridin-2-yl)benzoic acid was determined using the following formula: […]

[1] = mean of at least two replicates
[2] = delF508-CFTR-HRP surface expression

Cc1ccccc1-c1nc(NS(=O)(=O)c2cccc(NC3CCC(C(=O)O)C3)n2)ccc1C(F)(F)F (mixture of isomers) [Example 459, 3-((6-(N-(6-(o-tolyl)-5-(trifluoromethyl)pyridin-2-yl)sulfamoyl)pyridin-2-yl)amino)cyclopentanecarboxylic Acid]
pEC50 [1]: 5.63 | Emax (surface expression Amax): 332%

Cc1ccccc1-c1nc(NS(=O)(=O)c2cccc(NC3CCCC(C(=O)O)C3)n2)ccc1C(F)(F)F (mixture of isomers) [Example 460, 3-((6-(N-(6-(o-tolyl)-5-(trifluoromethyl)pyridin-2-yl)sulfamoyl)pyridin-2-yl)amino)cyclohexanecarboxylic acid]
pEC50 [1]: 5.74 | Emax (surface expression Amax): 362%

CO[C@H]1CNCC[C@H]1Nc1cccc(S(=O)(=O)Nc2ccc(C(F)(F)F)c(-c3ccccc3C)n2)n1 (racemic) [Example 115, 6-(((3S,4R)-3-methoxypiperidin-4-yl)amino)-N-(6-(o-tolyl)-5-(trifluoromethyl)pyridin-2-yl)pyridine-2-sulfonamide Hydrochloride]
Emax [2]: 192% | pEC50 [2]: 5.42

Cc1ccccc1-c1nc(NS(=O)(=O)c2cccc(OC3COCC3=O)n2)ccc1C(F)(F)F (racemic) [Example 292, 6-((4-oxotetrahydrofuran-3-yl)oxy)-N-(6-(o-tolyl)-5-(trifluoromethyl)pyridin-2-yl)pyridine-2-sulfonamide]
Emax [2]: 225% | pEC50 [2]: 5.53

Cc1ccccc1-c1nc(NS(=O)(=O)c2cccc(N[C@@H]3C[C@@]4(C(=O)O)CC[C@@H]3O4)n2)ccc1C(F)(F)F (racemic) [Example 395, rac-(1RS,3RS,4SR)-3-((6-(N-(6-(o-tolyl)-5-(trifluoromethyl)pyridin-2-yl)sulfamoyl)pyridin-2-yl)amino)-7-oxabicyclo[2.2.1]heptane-1-carboxylic Acid]
pEC50 [1]: 5.44 | Emax (surface expression Amax): 64.3%

CC(C)c1ccccc1-c1nc(NS(=O)(=O)c2cccc(N[C@@H]3C[C@@]4(C(=O)O)CC[C@@H]3O4)n2)ccc1C(F)(F)F (racemic) [Example 403, rac-(1RS,3RS,4SR)-3-((6-(N-(6-(2-isopropylphenyl)-5-(trifluoromethyl)pyridin-2-yl)sulfamoyl)pyridin-2-yl)amino)-7-oxabicyclo[2.2.1]heptane-1-carboxylic Acid]
pEC50 [1]: 5.63 | Emax (surface expression Amax): 155%

CCC[C@@H]1CCN(c2cccc(S(=O)(=O)Nc3ccc(C(F)(F)F)c(-c4ccccc4C)n3)n2)[C@H]2C[C@H](C(=O)O)[C@@H]12 (racemic) [Example 404, rac-(1SR,5RS,6RS,7SR)-5-propyl-2-(6-(N-(6-(o-tolyl)-5-(trifluoromethyl)pyridin-2-yl)sulfamoyl)pyridin-2-yl)-2-azabicyclo[4.2.0]octane-7-carboxylic Acid]
pEC50 [1]: 6.10

CCC[C@@H]1CCN(c2cccc(S(=O)(=O)Nc3ccc(Cl)c(-c4cccnc4C(C)C)n3)n2)[C@H]2C[C@H](C(=O)O)[C@@H]12 (racemic) [Example 434, rac-(1SR,5RS,6RS,7SR)-2-(6-(N-(3-chloro-2′-isopropyl-[2,3′-bipyridin]-6-yl)sulfamoyl)pyridin-2-yl)-5-propyl-2-azabicyclo[4.2.0]octane-7-carboxylic Acid]
pEC50 [1]: 5.65 | Emax (surface expression Amax): 734%

O=C(O)[C@]12CC[C@H](O1)[C@H](Nc1cccc(S(=O)(=O)Nc3ccc(C(F)(F)F)c(-c4ccccc4C4CC4)n3)n1)C2 (racemic) [Example 438, rac-(1RS,3RS,4SR)-3-((6-(N-(6-(2-cyclopropylphenyl)-5-(trifluoromethyl)pyridin-2-yl)sulfamoyl)pyridin-2-yl)amino)-7-oxabicyclo[2.2.1]heptane-1-carboxylic Acid]
pEC50 [1]: 5.70 | Emax (surface expression Amax): 53.4%

CC(C)c1ccccc1-c1nc(NS(=O)(=O)c2cccc(N3CCC[C@@H]4[C@@H](C(=O)O)C[C@@H]43)n2)ccc1C(F)(F)F (racemic) [Example 442, rac-(1SR,6RS,7SR)-2-(6-(N-(6-(2-isopropylphenyl)-5-(trifluoromethyl)pyridin-2-yl)sulfamoyl)pyridin-2-yl)-2-azabicyclo[4.2.0]octane-7-carboxylic Acid]
pEC50 [1]: 5.91

Cc1ccccc1-c1nc(NS(=O)(=O)c2cccc(N3CCC[C@@H]4[C@@H](C(=O)O)C[C@@H]43)n2)ccc1C(F)(F)F (racemic) [Example 443, rac-(1SR,6RS,7SR)-2-(6-(N-(6-(o-tolyl)-5-(trifluoromethyl)pyridin-2-yl)sulfamoyl)pyridin-2-yl)-2-azabicyclo[4.2.0]octane-7-carboxylic Acid]
pEC50 [1]: 5.76

Cc1ccccc1-c1nc(NS(=O)(=O)c2cccc(N[C@@H]3CCNC[C@@H]3O)n2)ccc1C(F)(F)F (relative stereo) [Example 113, 6-(((3S,4R)-3-hydroxypiperidin-4-yl)amino)-N-(6-(o-tolyl)-5-(trifluoromethyl)pyridin-2-yl)pyridine-2-sulfonamide Hydrochloride]
Emax [2]: 72% | pEC50 [2]: 5.37

Cc1ccccc1-c1nc(NS(=O)(=O)c2cccc(N[C@@H]3CCC[C@H](C(=O)O)C3)n2)ccc1C(F)(F)F (relative stereo) [Example 461, (1,3-cis)-3-((6-(N-(6-(o-tolyl)-5-(trifluoromethyl)pyridin-2-yl)sulfamoyl)pyridin-2-yl)amino)cyclohexanecarboxylic Acid]
pEC50 [1]: 5.71 | Emax (surface expression Amax): 392%

Cc1ccccc1-c1nc(NS(=O)(=O)c2cccc(N[C@@H]3CCC[C@@H](C(=O)O)C3)n2)ccc1C(F)(F)F (relative stereo) [Example 463, (1,3-trans)-3-((6-(N-(6-(o-tolyl)-5-(trifluoromethyl)pyridin-2-yl)sulfamoyl)pyridin-2-yl)amino)cyclohexanecarboxylic Acid]
pEC50 [1]: 5.53 | Emax (surface expression Amax): 410%

Cc1cccc(C)c1-c1nc(NS(=O)(=O)c2cccc(N)n2)cc(C(F)(F)F)c1Cl [Example 8, 6-amino-N-(5-chloro-6-(2,6-dimethylphenyl)-4-(trifluoromethyl)pyridin-2-yl)pyridine-2-sulfonamide]
Emax [2]: 608% | pEC50 [2]: 5.87

Cc1cccc(C)c1-c1nc(NS(=O)(=O)c2cccc(N)n2)ccc1F [Example 9, 6-amino-N-(6-(2,6-dimethylphenyl)-5-fluoropyridin-2-yl)pyridine-2-sulfonamide]
Emax [2]: 597% | pEC50 [2]: 5.82

Cc1ccccc1-c1nc(NS(=O)(=O)c2cccc(N)n2)ccc1Cl [Example 14, 6-Amino-N-(5-chloro-6-(o-tolyl)pyridin-2-yl)pyridine-2-sulfonamide]
Emax [2]: 523% | pEC50 [2]: 5.87

Cc1ccccc1-c1nc(NS(=O)(=O)c2cccc(N)n2)ccc1C(F)(F)F [Example 15, 6-amino-N-(6-(o-tolyl)-5-(trifluoromethyl)pyridin-2-yl)pyridine-2-sulfonamide]
Emax [2]: 520% | pEC50 [2]: 5.64

Nc1cccc(S(=O)(=O)Nc2ccc(Cl)c(-c3cc(Cl)ccc3C3CC3)n2)n1 [Example 16, 6-amino-N-(5-chloro-6-(5-chloro-2-cyclopropylphenyl)pyridin-2-yl)pyridine-2-sulfonamide]
Emax [2]: 519% | pEC50 [2]: 5.99

Nc1cccc(S(=O)(=O)Nc2ccc(Cl)c(-c3ccccc3C3CC3)n2)n1 [Example 19, 6-amino-N-(5-chloro-6-(2-cyclopropylphenyl)pyridin-2-yl)pyridine-2-sulfonamide]
Emax [2]: 501% | pEC50 [2]: 5.89

[2H]C([2H])([2H])c1ccccc1-c1nc(NS(=O)(=O)c2cccc(N)n2)ccc1Cl [Example 20, 6-amino-N-(5-chloro-6-(2-(methyl-d3)phenyl)pyridin-2-yl)pyridine-2-sulfonamide]
Emax [2]: 499% | pEC50 [2]: 5.75

Nc1cccc(S(=O)(=O)Nc2ccc(Cl)c(-c3cc(F)ccc3C3CC3)n2)n1 [Example 21, 6-amino-N-(5-chloro-6-(2-cyclopropyl-5-fluorophenyl)pyridin-2-yl)pyridine-2-sulfonamide]
Emax [2]: 493% | pEC50 [2]: 5.87
